One assay deals with hippocampal neurogenesis. Particulars: literature; antidepressants given chronically; cited from earlier work.
Assay [1] concerns NCAM PSA-immunoreactive neurons, dentate granule cell layer/hilar border. As to the kind of experiment: NCAM PSA expression in hippocampal dentate gyrus after chronic administration. Particulars: for PSA immunopositive cell frequency: hippocampal dentate. Format: in vivo, rat. The method, then:
(§1) Experimentally naïve postnatal day 80 (at the time of NCAM-PSA assessment) male Wistar rats were employed in all studies. All animals were housed singly and maintained at 22±2° C. on a standard 12 h-light/dark cycle with food and water available ad libitum. Animals were introduced to the experimental holding rooms at least 3 days prior to the commencement of any study.
(§2) Freshly dissected whole rat brain was carefully coated in optimum cutting temperature (OCT) compound and lowered into a Cryoprep freezing apparatus containing dry-ice-cooled n-hexane. The function of the OCT compound and n-hexane was to provide an even freezing of the tissue, thus avoiding freezing artefacts. Horizontal sections for all studies were cut semi-automatically or automatically on a Microm Series 500 cryostat. Fresh, frozen brain sections (12 μm) were cut at −15° C., while cryoprotected. All sections were prepared on the day of the experiment and were not pre-cut and stored frozen.
(§3) Horizontal cryosections were cut from the frozen tissue at various levels with reference to Bregma (see above), these were thaw-mounted onto glass slides, which were coated with poly-1-lysine diluted 1:1 in dH2O, and immersion fixed for 30 minutes with 70% ethanol. The sections were then washed twice for 10 minutes each in 0.1M phosphate buffered saline (PBS) and incubated for 20 hours in a humidified chamber at room temperature with the primary antibody diluted 1:500 in PBS containing 1% bovin serum albumin (w/v) and 1% normal goat serum (v/v) to reduce non-specific staining. The humidified chamber prevented the sections from evaporating. The primary antibody was a monoclonal raised against PSA, which was provided by Professor G, Rougon (CNRS UMR 6545, 13288 Marseille, France). On completion of the primary antibody incubation, the sections were washed twice for ten minutes each in PBS and incubated at room temperature for 3 hours in the humidified chamber with the secondary antibody, at a dilution factor of 1:100, again in PBS containing 1% BSA and 1% NGS. The secondary antibody was a goat anti-mouse IgM conjugated to fluorescein (FITC). Following the second incubation, the sections ware again washed twice for ten minutes each in PBS, mounted in the fluorescence enhancing medium Citifluor® and observed for fluorescence with a Leitz DM RB fluorescent microscope.
(§4) Quantitative image analysis was performed using the Leica Quantimet 500®, a P.C.-based software package, which was connected to the fluorescence microscope with a high sensitivity CCD video camera. Each microscope lens was calibrated for length and area measurements using a 1 mm graticule. The total number of NCAM PSA-immunoreactive neurons on the right dentate granule cell layer/hilar border were counted in 7 alternate 12 μm sections commencing −5.6 mm from Bregma (Paxinos and Watson, 1986), to preclude double counting of the 5-10 μm perikarya. Cell identification was aided by the use of the nuclear counter-stain propidium iodide (40 ng/ml PBS; 60 sec). The number of cells was then divided by the total area of the dentate granule cell layer and multiplied by the average granule cell layer area for a p80 rat, which is 0.15±0.01 mm^2 at this level. This was done for each section and a mean±SEM was calculated for each brain with the results expressed as PSA-positive cells per unit area. […] Cell identification was again aided by the use of the nuclear counter-stain propidium iodide (40 ng/ml PBS; 60 sec) with the use of alternate sections eliminating the possibility of double counting. Cell counts were divided by the length of the cortex and multiplied by the average length of the cortex, which was taken to be 10 mm. This was completed for each section and a mean±SEM was calculated for each brain with the results expressed as PSA-positive cells per unit length.
NCAM PSA-positive cell numbers were obtained from each animal group.

Assay [2] has the same test system. Description: NCAM PSA expression in hippocampal dentate gyrus with water maze training. Format: in vivo, rat. Particulars: chronic 20 mg/kg; for PSA immunopositive cell frequency: Example 4, 40 days by gavage. The method, then:
as §1, §2, §3, §4
In this protocol animals were introduced to the training environment 5 days prior to training, and individually housed according to standard conditions. […]

The subject of assay [3] is BrdU-immunopositive cells in the hippocampal dentate granule cell layer. As to the kind of experiment: BrdU expression in hippocampal dentate granule cell layer (neurogenesis). Format: in vivo, rat. The protocol:
as §1

The values that follow come from patent US20070270432A1, “Novel Method” (priority 2002, published 2007).

In the case of `N[C@@H]1C[C@H]1c1ccccc1` (racemic) [tranylcypromine], the “effect on hippocampal neurogenesis” value with hippocampal neurogenesis is on record as “stimulate hippocampal neurogenesis”.
With `CCOC(=O)[C@H](N)/C=C(\C)CP(=O)(O)O` [CGP43487], the “effect on hippocampal neurogenesis” value in the assay with hippocampal neurogenesis was “reduce the rate of hippocampal neurogenesis”.
As to `COc1ccc(S(=O)(=O)Nc2cc(Cl)cc(Cl)c2OC)cc1N1CCNCC1.Cl` [SB399885, N-(3,5-dichloro-2-methoxy-phenyl)-4-methoxy-3-piperazin-1-yl-benzenesulfonamide hydrochloride], the “PSA immunopositive cell frequency” value is 81.4 ± 5.3 PSA-positive cells per unit area in assay [1] (Example 3, 3 mg/kg, 40 days by gavage); 87.4 ± 5.4 PSA-positive cells per unit area in assay [1] (Example 3, 10 mg/kg, 40 days by gavage); 104.2 ± 4.4 PSA-positive cells per unit area in assay [1] (Example 3, 20 mg/kg, 40 days by gavage); 125.9 ± 4.7 PSA-positive cells per unit area in assay [2] (12 h post water maze training); 104.2 ± 4.4 PSA-positive cells per unit area in assay [2] (untrained). In addition, the “effect on frequency of polysialylated neurons in the subventricular zone of the rat hippocampal dentate gyrus” value in assay [1] (chronic administration, versus vehicle-treated control) is recorded as “significantly increase”. In addition, in assay [1] (chronic treatment, analysis of variance F[1,21]=5.882, P=0.0244), the “dose dependent increase in basal frequency of hippocampal polysialylated neurons compared with SB271046 of Example 1” value is recorded as “significantly greater”. The “increase in frequency of hippocampal polysialylated neurons 12 h following water maze training compared with SB271046 of Example 2” value in assay [2] (Student's t-test P=0.0337) is “significantly greater”. Also, the “effect on frequency of polysialylated neurons at 12 h following water maze training” value in assay [2] (versus untrained drug-treated and trained drug-naive animals) is on record as “significantly increase”. Moreover, in assay [3] (20 mg/kg, 40 days by gavage, BrdU 100 mg/kg i.p. last eight days), the “BrdU-immunopositive cell number/granule cell layer” value came to 2296.7 ± 49.1. Also, in assay [3] (chronic 20 mg/kg, versus vehicle-treated controls), the “effect on expression of BrdU-immunopositive cells / neurogenic rate” value is given as “without altering neurogenic rate”.
`NCCc1c[nH]c2ccc(O)cc12` [Serotonin]: the “effect on hippocampal neurogenesis” value in the assay on hippocampal neurogenesis is “stimulate hippocampal neurogenesis”.
Turning to `CN1CCN(C2=Nc3cc(Cl)ccc3Nc3ccccc32)CC1` [clozapine, reference compound], the “PSA immunopositive cell frequency” value in assay [1] (Example 1, 5 mg/kg, chronic comparison group) is reported as 69.8 ± 1.6 PSA-positive cells per unit area.
On to `CNCCC(Oc1ccc(C(F)(F)F)cc1)c1ccccc1` (stereo not drawn) [fluoxetine], for which the “effect on hippocampal neurogenesis” value with hippocampal neurogenesis is listed as “stimulate hippocampal neurogenesis”.
As for `CN1CC[C@]23c4c5ccc(O)c4O[C@H]2[C@@H](O)C=C[C@H]3[C@H]1C5` [morphine], in the assay with hippocampal neurogenesis, the “effect on hippocampal neurogenesis” value is reported as “reduce the rate of hippocampal neurogenesis”.
Turning to `CCOc1ccccc1OC(c1ccccc1)C1CNCCO1` (stereo not drawn) [reboxetine], the “effect on hippocampal neurogenesis” value in the assay with hippocampal neurogenesis is listed as “stimulate hippocampal neurogenesis”.
